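Following 48 hours of exposure in 96-well plates, responses at five concentrations were used to interpolate endpoints linearly. Here, GI50 denotes the concentration required for 50% inhibition of growth.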 The source made the active and inactive calls. Cut-off read from the data, not from the text of the source: active = GI50 up to about 1.1 µM and inactive = higher.
How the values were obtained:
Test in all cases: inhibition of tumour cell growth, NCI panel, 48 h
NCI-H23 = test system: NCI-H23
Hs-578T = test system: Hs-578T
SK-MEL-28 = test system: SK-MEL-28
DU-145 = test system: DU-145
HOP-62 = test system: HOP-62
OVCAR-3 = test system: OVCAR-3
SF-268 = test system: SF-268
OVCAR-5 = test system: OVCAR-5
NCI-H460 = test system: NCI-H460
OVCAR-8 = test system: OVCAR-8
UO-31 = test system: UO-31
UACC-62 = test system: UACC-62
KM12 = test system: KM12
IGROV-1 = test system: IGROV-1
ACHN = test system: ACHN
CCRF-CEM = test system: CCRF-CEM
MDA-N = test system: MDA-N
M14 = test system: M14
MDA-MB-435 = test system: MDA-MB-435
COLO 205 = test system: COLO 205
EKVX = test system: EKVX
SF-295 = test system: SF-295
SW-620 = test system: SW-620
MOLT-4 = test system: MOLT-4
TK-10 = test system: TK-10
T47D = test system: T47D
NCI-H522 = test system: NCI-H522
SK-MEL-2 = test system: SK-MEL-2
K562 = test system: K562
SNB-19 = test system: SNB-19
HCT-15 = test system: HCT-15
SF-539 = test system: SF-539
MCF7 = test system: MCF7
HT-29 = test system: HT-29
NCI/ADR-RES = test system: NCI/ADR-RES
PC-3 = test system: PC-3
UACC-257 = test system: UACC-257
SN12C = test system: SN12C
SR = test system: SR
HCT-116 = test system: HCT-116
SK-MEL-5 = test system: SK-MEL-5
LOX IMVI = test system: LOX IMVI
786-0 = test system: 786-0
RPMI-8226 = test system: RPMI-8226
A549 = test system: A549
MDA-MB-231 = test system: MDA-MB-231
NCI-H226 = test system: NCI-H226
HCC 2998 = test system: HCC 2998
HOP-92 = test system: HOP-92
OVCAR-4 = test system: OVCAR-4
RXF 393 = test system: RXF 393
HL-60 = test system: HL-60
SNB-75 = test system: SNB-75
SK-OV-3 = test system: SK-OV-3
A498 = test system: A498
U-251 = test system: U-251
Malme-3M = test system: Malme-3M
CAKI-1 = test system: CAKI-1

## COc1ccccc1C1c2cc3c(cc2OC(N2CCOCC2)C1C)OCO3 (stereo unspecified)
NCI-H23
  GI50: 19.8 µM (inactive)
Hs-578T
  GI50: 13.2 µM (inactive)
SK-MEL-28
  GI50: 15.6 µM (inactive)
DU-145
  GI50: 18.5 µM (inactive)
HOP-62
  GI50: 17.8 µM (inactive)
OVCAR-3
  GI50: 13 µM (inactive)
SF-268
  GI50: 16.1 µM (inactive)
OVCAR-5
  GI50: 16.4 µM (inactive)
NCI-H460
  GI50: 16.6 µM (inactive)
OVCAR-8
  GI50: 28.3 µM (inactive)
UO-31
  GI50: 15.9 µM (inactive)
UACC-62
  GI50: 14.7 µM (inactive)
KM12
  GI50: 16.4 µM (inactive)
IGROV-1
  GI50: 27.2 µM (inactive)
ACHN
  GI50: 26.2 µM (inactive)
CCRF-CEM
  GI50: 13.2 µM (inactive)
MDA-N
  GI50: 10.5 µM (inactive)
M14
  GI50: 17.5 µM (inactive)
MDA-MB-435
  GI50: 8.04 µM (inactive)
COLO 205
  GI50: > 10 µM (inactive)
EKVX
  GI50: 20.6 µM (inactive)
SF-295
  GI50: 13.5 µM (inactive)
SW-620
  GI50: 17.7 µM (inactive)
MOLT-4
  GI50: 17.1 µM (inactive)
TK-10
  GI50: 22 µM (inactive)
T47D
  GI50: 13.2 µM (inactive)
NCI-H522
  GI50: 12.7 µM (inactive)
SK-MEL-2
  GI50: 17.7 µM (inactive)
K562
  GI50: 7.85 µM (inactive)
SNB-19
  GI50: 14 µM (inactive)
HCT-15
  GI50: 16.7 µM
SF-539
  GI50: 14.2 µM (inactive)
MCF7
  GI50: 23.6 µM (inactive)
HT-29
  GI50: 16.9 µM (inactive)
NCI/ADR-RES
  GI50: 22.9 µM (inactive)
PC-3
  GI50: 21.5 µM (inactive)
UACC-257
  GI50: 15.8 µM (inactive)
SN12C
  GI50: 17.7 µM (inactive)
SR
  GI50: 15.8 µM (inactive)
HCT-116
  GI50: 12.4 µM (inactive)
SK-MEL-5
  GI50: 15.4 µM (inactive)
LOX IMVI
  GI50: 16.7 µM (inactive)
786-0
  GI50: 18.9 µM (inactive)
RPMI-8226
  GI50: 16.2 µM (inactive)
A549
  GI50: 17.3 µM (inactive)

## NNc1c(C(N)=O)c2c(N)ncnc2n1C1OC(CO)C(O)C1O (stereo unspecified)
DU-145
  GI50: < 0.01 µM (active)
HOP-62
  GI50: 0.0196 µM (active)
MDA-MB-231
  GI50: 0.0255 µM (active)
ACHN
  GI50: 0.0107 µM (active)
NCI-H226
  GI50: 0.0536 µM (active)
MDA-N
  GI50: 0.0261 µM (active)
COLO 205
  GI50: 0.0129 µM (active)
EKVX
  GI50: 0.078 µM (active)
SF-295
  GI50: 0.233 µM (active)
SW-620
  GI50: < 0.01 µM (active)
T47D
  GI50: < 0.01 µM (active)
K562
  GI50: 0.0451 µM (active)
HCT-15
  GI50: 0.0175 µM
MCF7
  GI50: 0.0171 µM (active)
HT-29
  GI50: 0.0198 µM (active)
SR
  GI50: < 0.01 µM (active)
HCT-116
  GI50: 0.0119 µM (active)
LOX IMVI
  GI50: 0.0112 µM (active)

## COc1cc(CNC(=S)CCCCCCCCCCC(C)C)ccc1O
NCI-H23
  GI50: 28.7 µM (inactive)
Hs-578T
  GI50: 22.2 µM (inactive)
SK-MEL-28
  GI50: > 100 µM (inactive)
DU-145
  GI50: > 100 µM (inactive)
HOP-62
  GI50: 58.6 µM (inactive)
SF-268
  GI50: > 100 µM (inactive)
OVCAR-5
  GI50: > 100 µM (inactive)
NCI-H460
  GI50: 42.9 µM (inactive)
HCC 2998
  GI50: 63.1 µM (inactive)
OVCAR-8
  GI50: 49 µM (inactive)
MDA-MB-231
  GI50: > 100 µM (inactive)
UO-31
  GI50: 11.9 µM (inactive)
UACC-62
  GI50: 34.4 µM (inactive)
KM12
  GI50: 28.4 µM (inactive)
IGROV-1
  GI50: 44.2 µM (inactive)
ACHN
  GI50: 58.7 µM (inactive)
HOP-92
  GI50: 24.2 µM (inactive)
NCI-H226
  GI50: 18.4 µM (inactive)
CCRF-CEM
  GI50: 1.19 µM (inactive)
M14
  GI50: 48.4 µM (inactive)
MDA-MB-435
  GI50: 41.9 µM (inactive)
COLO 205
  GI50: 70.6 µM (inactive)
OVCAR-4
  GI50: 53.6 µM (inactive)
RXF 393
  GI50: > 100 µM (inactive)
EKVX
  GI50: 62.8 µM (inactive)
HL-60
  GI50: 13.3 µM (inactive)
SF-295
  GI50: 43.7 µM (inactive)
SW-620
  GI50: > 100 µM (inactive)
MOLT-4
  GI50: 5.92 µM (inactive)
TK-10
  GI50: > 100 µM (inactive)
T47D
  GI50: 27 µM (inactive)
SNB-75
  GI50: > 100 µM (inactive)
K562
  GI50: 35.2 µM (inactive)
SK-OV-3
  GI50: > 100 µM (inactive)
SNB-19
  GI50: 72.6 µM (inactive)
HCT-15
  GI50: 63 µM
A498
  GI50: 31.6 µM (inactive)
SF-539
  GI50: > 100 µM (inactive)
MCF7
  GI50: 41.5 µM (inactive)
HT-29
  GI50: 36.7 µM (inactive)
NCI/ADR-RES
  GI50: 46.3 µM (inactive)
UACC-257
  GI50: 38.5 µM (inactive)
U-251
  GI50: 72.1 µM (inactive)
SN12C
  GI50: 92.3 µM (inactive)
Malme-3M
  GI50: > 100 µM (inactive)
SR
  GI50: 3.01 µM (inactive)
HCT-116
  GI50: 31.6 µM (inactive)
SK-MEL-5
  GI50: 36.2 µM (inactive)
LOX IMVI
  GI50: 41.9 µM (inactive)
786-0
  GI50: 63.5 µM (inactive)
RPMI-8226
  GI50: 37.2 µM (inactive)
A549
  GI50: 53 µM (inactive)

## CCOC(=O)C1(C(=O)OCC)CCC(C(OC)OC)C(CC(=O)OC)C1 (stereo unspecified)
NCI-H23
  GI50: > 10 µM (inactive)
SK-MEL-28
  GI50: > 10 µM (inactive)
HOP-62
  GI50: > 10 µM (inactive)
SF-268
  GI50: > 10 µM (inactive)
NCI-H460
  GI50: > 10 µM (inactive)
UACC-62
  GI50: > 10 µM (inactive)
IGROV-1
  GI50: > 10 µM (inactive)
ACHN
  GI50: > 10 µM (inactive)
HOP-92
  GI50: > 10 µM (inactive)
CCRF-CEM
  GI50: > 10 µM (inactive)
M14
  GI50: > 10 µM (inactive)
MDA-MB-435
  GI50: > 10 µM (inactive)
COLO 205
  GI50: > 10 µM (inactive)
OVCAR-4
  GI50: > 10 µM (inactive)
RXF 393
  GI50: > 10 µM (inactive)
HL-60
  GI50: > 10 µM (inactive)
SW-620
  GI50: > 10 µM (inactive)
MOLT-4
  GI50: > 10 µM (inactive)
T47D
  GI50: > 10 µM (inactive)
SK-MEL-2
  GI50: > 10 µM (inactive)
SNB-75
  GI50: > 10 µM (inactive)
K562
  GI50: > 10 µM (inactive)
SK-OV-3
  GI50: > 10 µM (inactive)
MCF7
  GI50: > 10 µM (inactive)
NCI/ADR-RES
  GI50: > 10 µM (inactive)
U-251
  GI50: > 10 µM (inactive)
CAKI-1
  GI50: > 10 µM (inactive)
Malme-3M
  GI50: > 10 µM (inactive)
SR
  GI50: > 10 µM (inactive)
SK-MEL-5
  GI50: > 10 µM (inactive)
786-0
  GI50: > 10 µM (inactive)
RPMI-8226
  GI50: > 10 µM (inactive)
A549
  GI50: > 10 µM (inactive)

## O=C1C(Cl)=C(N2CCN(CCOCCO)CC2)C(=O)c2c(O)ccc(O)c21
DU-145
  GI50: 1.82 µM (inactive)
OVCAR-5
  GI50: 1.87 µM (inactive)
NCI-H460
  GI50: 1.98 µM (inactive)
HCC 2998
  GI50: 1.83 µM (inactive)
HOP-92
  GI50: 0.237 µM (active)
NCI-H226
  GI50: 1.89 µM (inactive)
T47D
  GI50: 0.264 µM (active)
SNB-75
  GI50: 1.6 µM (inactive)
HCT-15
  GI50: 0.227 µM
SF-539
  GI50: 1.75 µM (inactive)
A549
  GI50: 2.01 µM (inactive)

## c1ccc2c(Nc3ccc(Oc4ccc(Nc5c6ccccc6nc6ccccc56)cc4)cc3)c3ccccc3nc2c1
NCI-H23
  GI50: 0.181 µM (active)
Hs-578T
  GI50: 2.21 µM (inactive)
SK-MEL-28
  GI50: 0.102 µM (active)
DU-145
  GI50: 0.277 µM (active)
OVCAR-3
  GI50: 0.0659 µM (active)
SF-268
  GI50: 1.57 µM (inactive)
OVCAR-5
  GI50: 0.528 µM (active)
NCI-H460
  GI50: 0.618 µM (active)
HCC 2998
  GI50: < 0.01 µM (active)
OVCAR-8
  GI50: 0.139 µM (active)
HOP-92
  GI50: 1.83 µM (inactive)
NCI-H226
  GI50: 1.72 µM (inactive)
M14
  GI50: 0.0925 µM (active)
MDA-MB-435
  GI50: 0.0647 µM (active)
COLO 205
  GI50: 0.815 µM (active)
OVCAR-4
  GI50: 0.0668 µM (active)
RXF 393
  GI50: 2.4 µM (inactive)
EKVX
  GI50: 1.5 µM (inactive)
HL-60
  GI50: 0.547 µM (active)
SF-295
  GI50: 1.67 µM (inactive)
SW-620
  GI50: 0.0649 µM (active)
TK-10
  GI50: 1.19 µM (inactive)
T47D
  GI50: 0.556 µM (active)
NCI-H522
  GI50: 0.665 µM (active)
SK-MEL-2
  GI50: 1.96 µM (inactive)
SNB-75
  GI50: 0.436 µM (active)
SK-OV-3
  GI50: 1.72 µM (inactive)
SNB-19
  GI50: 0.299 µM (active)
A498
  GI50: 1.85 µM (inactive)
MCF7
  GI50: 0.0942 µM (active)
NCI/ADR-RES
  GI50: 0.0655 µM (active)
PC-3
  GI50: 1.6 µM (inactive)
CAKI-1
  GI50: 1.63 µM (inactive)
Malme-3M
  GI50: 1.73 µM (inactive)
SK-MEL-5
  GI50: 1.57 µM (inactive)
LOX IMVI
  GI50: 0.792 µM (active)
786-0
  GI50: 0.0504 µM (active)
